Measurements as given in patent EP4455292A1, “A METHOD FOR DETECTING ECTOINE” (Kaunas University of Technology, priority 2023, dated 2024).

Columns and labels:
[1] = system: ectoine-inducible system EutR/PeutB; experiment: E. coli-based ectoine biosensor (plasmid pEct-1), RFP reporter fluorescence response; type: cell-based
Procedure: (§1) The fluorescence and cell absorbance were measured at multiple time points. Freshly grown bacterial cells were used to inoculate 2 mL of MM containing appropriate antibiotics in 50-mL centrifuge tubes, and cell cultures were grown overnight at 200 rpm and 30 °C. To obtain logarithmically growing cells, E. coli and P. putida overnight cultures were diluted to 0.05 OD600, respectively, in 5 mL of fresh medium with antibiotic. After the cells were grown to an OD600 of 0.15-0.2, culture aliquots of 142.5 µL were transferred into flat and clear bottom black 96-well plate (Corning Incorporated) and 7.5 µL of ectoine or hydroxyectoine was added to each culture to the required final concentration. Absorbance and fluorescence of cultures were measured using an Infinite Nano+ microplate reader (Tecan). Multiple time point measurements were taken every 10 min over the course of 15-20 hours with a plate reader measuring RFP fluorescence at excitation and emission wavelengths set to 585 nm and 620 nm, respectively, and absorbance at 600 nm. Obtained fluorescence and absorbance values were corrected by subtracting the autofluorescence and absorbance of the culture medium. The absolute normalized fluorescence was determined dividing the fluorescence value by corresponding absorbance value.
The dose-response of biosensors was determined by using single time-point values of fluorescence and absorbance, which were obtained from the multiple time-point measurements 4 h after supplementation of ectoine or hydroxyectoine at different concentrations ranging from 0 to 5 mM. For all assays, the cultures of E. coli and P. putida were prepared as described above, and 142.5 µL of logarithmically growing cells, supplemented with 7.5 µL of ectoine or hydroxyectoine, were cultured in 96-well plate. The fluorescence and absorbance were measured using the same conditions and plate reader as indicated above.
The plasmid pEct-1 was used to characterize biosensor's response to exogenously added ectoine. Experiments were performed to determine the kinetics of induction establishing the time that is required for the system to respond to a change in the ectoine and the dose response of the system. To evaluate biosensor's response to the ectoine, the fluorescence output was quantified.
First, the time course experiments were performed in E. coli and P. putida. Accordingly, cells of both microorganisms harbouring the plasmid pEct-1, were cultivated in minimal medium (MM) at 200 rpm and 30° C (E. coli: Cm 50 mg/L; P. putida: Tet 12.5 mg/L), in the presence and absence of 1 mM ectoine; their optical density (OD600) and RFP fluorescence were monitored over time (Figure 3). In both microorganisms, the RFP expression above the level of the uninduced culture started with 60-90 minutes delay after addition of ectoine (Figure 3 and Figure 4) supporting the notion that the ectoine's catabolic product, the alpha-ADABA, as identified previously [Schultz et al (2017) Environ. Microbiol. 19(11), 4599-4619; Hermann et al (2021) Front. Microbiol. 12, 764731] is the effector that activates gene expression in P. putida. The fluorescence continued to increase throughout the course of 20-hour time course experiment. Importantly, the uninduced baseline (no ectoine) remained at 0 fluorescence units. […] Such "non-leaky" system helps improving the quantification accuracy of reporter fluorescence, but also can be used to control the gene expression that can be harmful or even toxic to a cell. […]

[2] = system: ectoine-inducible system EutR/PeutB; experiment: P. putida-based ectoine biosensor (plasmid pEct-1), RFP reporter fluorescence response; type: cell-based
Procedure: as §1
The dose-response of biosensors was determined by using single time-point values of fluorescence and absorbance, […] ranging from 0 to 5 mM. […] The fluorescence and absorbance were measured using the same conditions and plate reader as indicated above.
The plasmid pEct-1 was used to characterize biosensor's response to exogenously added ectoine. […] To evaluate biosensor's response to the ectoine, the fluorescence output was quantified.
First, the time course experiments were performed in E. coli and P. putida. […] The fluorescence continued to increase throughout the course of 20-hour time course experiment. Importantly, the uninduced baseline (no ectoine) remained at 0 fluorescence units. […]

[3] = system: AraC-PBAD; details: prior-art AraC-PBAD sensor, E. coli; cited from earlier work
[4] = E. coli, MM, 10 hours after supplementation, text does not separate the two hosts
[5] = MM, 10 hours after supplementation, text does not separate the two hosts

SMILES: CC1=NC(C(=O)O)CCN1 (stereo not drawn) [ectoine, 1,4,5,6-tetrahydro-2-methyl-4-pyrimidinecarboxylic acid]
- delay of RFP expression above the level of the uninduced culture after addition of ectoine ([1]; 1 mM ectoine, MM, 30° C, E. coli): 60 to 90 min
- fold lower minimal ectoine concentration needed for observable induction (applicant's sensor vs AraC-PBAD sensor) ([1]; E. coli expression organism): around 1000 fold
- limit of detection [1, 4]: below 1 µM
- range of linear fluorescence response to exogenously present ectoine [1, 4]: 1 to 20 µM
- minimal effective concentration ([1]; Escherichia coli, applicant's sensor, E. coli expression organism, read-out: minimal ectoine concentration needed for observable induction): 1 µM
- delay of RFP expression above the level of the uninduced culture after addition of ectoine ([2]; 1 mM ectoine, 30° C): 60 to 90 min
- limit of detection [2, 5]: below 1 µM
- range of linear fluorescence response to exogenously present ectoine [2, 5]: 1 to 20 µM
- minimal ectoine concentration needed for observable induction [3]: around 10 mM
